Laboratory results from US5849326A, “Method for treating neuronal diseases via administration of 2-acylaminopropanol derivatives” (Seikagaku Corporation, priority 1993, dated 1998).

Key:
[1] = test system: explants; assay: Neurite-extending activity in explants (Example 6); format: cell-based; conditions: cultured for 40 hours, FIG. 5
Procedure: 1.6×10^5 cells/well of explants were sowed in a plate with 24 wells containing a DMEM medium. […] After the mixture was cultured for 40 hours, the resulting culture was fixed and then dyed with Coomassie, and nervous fibers extended to have a length which was longer than a diameter of […] were counted.

[2] = test system: B16 melanoma cells; assay: Glycolipid biosynthesis (3H-galactose incorporation into GSL); format: cell-based; conditions: culture for 24 hours
Procedure: B16 melanoma cells derived from neuroectoderm were charged into a culture plate with 12 wells in an amount of 1×10^5 cells/well and cultured for 24 hours in a Dulbecco modified Eagle's medium containing 10% bovine fetal serum. […] After 24 hours, the medium was removed, the cells were washed with 1 ml of a phosphate buffer containing 0.1% EDTA, 1 ml of 0.25% trypsin was added, and the mixture was left to stand at 37° C. for 5 minutes. […] 4 ml of methanol and chloroform were added successively to the mass of the cells to extract all GSL, followed by evaporation to dryness. The residue was subjected to alkali hydrolysis with chloroform:methanol (1:1) containing 0.2N sodium hydroxide, neutralized with acetic acid and then evaporated to dryness. The product evaporated to dryness was dissolved in water and then desalted with a Sep-Pak C18 cartridge (Waters). The adsorbed GSL was dissolved out by 1 ml of methanol and 4 ml of chloroform:methanol (1:1) and then evaporated to dryness under a nitrogen stream. […] Thereafter, the positions of glucosylceramide, lactosylceramide and ganglioside GM3 were confirmed by iodine coloration, they were scratched off from TLC, respectively, and radioactivities thereof were measured by a liquid scintillation counter.

[3] = test system: GSL; conditions: J. Cell. Physiol., vol. 141, pp. 573-583 (1989); cited from earlier work

With CCCCCCCCCC(=O)N[C@@H](CN1CCOCC1)[C@@H](O)c1ccccc1 [L-threo-PDMP, 1-phenyl-2-decanoylamino-3-morpholino-1-propanol] as the molecule, how does the “concentration at which extension of neurites was the largest” value [1] read?
Its value is 15 µM.

What about the minimal effective concentration ([1]; read-out: concentration at which extension of neurites was observed) of the same molecule?
The minimal effective concentration was no less than 5 µM.

What about the “concentration at which a pharmaceutical effect has been observed” value [2] of the same molecule?
The value was 25 µM.

And the “biosynthesis of GSL” value [3]?
The value was “has possibility of accelerating biosynthesis of GSL”.
